According to patent US9302991B2, “Arylamide derivatives as TTX-S blockers” (RaQualia Pharma Inc., priority 2010, dated 2016):

What was measured:
[1] = target: T1, human Nav1.7 channels (Homo sapiens, UniProt Q15858); experiment: FRET assay, human Nav1.7 (EFS on FDSS); assay type: cell-based; conditions: CHO cells expressing human Nav1.7, read-out: IC50 against Nav1.7
T1 construct: expressed in transfected cells; host or cells: CHO
Outline: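 IC50 was derived from normalized 440 nm fluorescence ratios of the EFS-evoked membrane-potential response read on FDSS. Recombinant CHO cells were sequentially dye-loaded with coumarin/oxonol FRET pair at room temperature in pH 7.4 buffer before compound addition.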

[2] = target: T2, human Nav1.3 channels (Homo sapiens, UniProt Q9NY46); experiment: FRET assay, human Nav1.3 (EFS on FDSS); assay type: cell-based; conditions: HEK293 cells expressing human Nav1.3, read-out: IC50 against Nav1.3
T2 construct: expressed in transfected cells; host or cells: HEK293
Outline: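 HEK293 cells expressing the channel, loaded with 10 microM CC2-DMPE then 15 microM DiSBAC2(3) plus 0.555 mM VABSC-1 in pH 7.4 HEPES buffer at room temperature. Membrane potential changes evoked by electrical field stimulation after compound addition; IC50 from 440 nm-normalized FRET ratios.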

T1 sequence (Q15858 whole entry): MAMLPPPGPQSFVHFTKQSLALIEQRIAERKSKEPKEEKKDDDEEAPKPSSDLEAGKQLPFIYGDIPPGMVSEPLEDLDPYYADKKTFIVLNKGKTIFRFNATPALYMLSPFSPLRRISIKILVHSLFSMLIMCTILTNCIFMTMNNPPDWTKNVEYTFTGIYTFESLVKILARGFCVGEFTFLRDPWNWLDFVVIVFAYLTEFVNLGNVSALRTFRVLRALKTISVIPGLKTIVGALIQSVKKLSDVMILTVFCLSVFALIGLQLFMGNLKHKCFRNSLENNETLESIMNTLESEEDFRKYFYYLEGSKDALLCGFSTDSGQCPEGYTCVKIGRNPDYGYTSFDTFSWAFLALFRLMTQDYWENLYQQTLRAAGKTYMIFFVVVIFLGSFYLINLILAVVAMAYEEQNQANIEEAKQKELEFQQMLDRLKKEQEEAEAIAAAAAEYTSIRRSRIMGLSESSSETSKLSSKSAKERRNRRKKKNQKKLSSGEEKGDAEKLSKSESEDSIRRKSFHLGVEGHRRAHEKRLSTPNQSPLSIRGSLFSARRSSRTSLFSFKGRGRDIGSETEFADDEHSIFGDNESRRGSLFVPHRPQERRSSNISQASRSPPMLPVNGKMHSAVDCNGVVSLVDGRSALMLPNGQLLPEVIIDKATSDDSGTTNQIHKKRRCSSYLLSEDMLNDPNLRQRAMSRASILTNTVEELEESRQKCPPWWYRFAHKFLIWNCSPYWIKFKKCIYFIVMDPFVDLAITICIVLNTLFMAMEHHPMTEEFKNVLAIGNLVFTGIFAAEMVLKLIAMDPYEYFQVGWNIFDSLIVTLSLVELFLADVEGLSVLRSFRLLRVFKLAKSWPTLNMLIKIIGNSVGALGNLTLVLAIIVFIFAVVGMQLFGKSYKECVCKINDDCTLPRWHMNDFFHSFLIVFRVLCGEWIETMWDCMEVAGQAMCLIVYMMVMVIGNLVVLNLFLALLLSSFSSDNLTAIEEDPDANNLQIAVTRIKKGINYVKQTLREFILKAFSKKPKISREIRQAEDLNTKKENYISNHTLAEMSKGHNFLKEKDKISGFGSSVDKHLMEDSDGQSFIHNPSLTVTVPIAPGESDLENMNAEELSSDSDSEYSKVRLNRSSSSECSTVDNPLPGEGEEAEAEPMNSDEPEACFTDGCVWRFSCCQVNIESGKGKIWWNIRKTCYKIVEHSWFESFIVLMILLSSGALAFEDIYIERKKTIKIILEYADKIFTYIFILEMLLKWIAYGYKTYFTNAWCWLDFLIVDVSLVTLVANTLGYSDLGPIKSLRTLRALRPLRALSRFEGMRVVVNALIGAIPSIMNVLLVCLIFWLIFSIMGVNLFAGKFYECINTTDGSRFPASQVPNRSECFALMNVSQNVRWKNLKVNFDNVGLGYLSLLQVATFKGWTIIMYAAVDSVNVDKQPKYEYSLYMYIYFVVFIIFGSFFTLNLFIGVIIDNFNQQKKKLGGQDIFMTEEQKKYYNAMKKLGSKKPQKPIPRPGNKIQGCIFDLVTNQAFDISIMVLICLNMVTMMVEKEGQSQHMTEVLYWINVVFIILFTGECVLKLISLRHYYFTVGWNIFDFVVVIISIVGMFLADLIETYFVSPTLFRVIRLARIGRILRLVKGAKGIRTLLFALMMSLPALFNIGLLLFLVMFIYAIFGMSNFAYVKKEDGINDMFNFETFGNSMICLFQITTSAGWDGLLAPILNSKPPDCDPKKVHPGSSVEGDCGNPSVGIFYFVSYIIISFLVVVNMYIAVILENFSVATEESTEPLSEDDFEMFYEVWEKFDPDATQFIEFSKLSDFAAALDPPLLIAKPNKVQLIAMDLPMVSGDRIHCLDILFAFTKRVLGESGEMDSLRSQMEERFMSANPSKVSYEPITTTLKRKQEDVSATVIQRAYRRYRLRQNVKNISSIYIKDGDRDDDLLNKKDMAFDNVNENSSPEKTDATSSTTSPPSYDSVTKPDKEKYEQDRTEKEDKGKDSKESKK
T2 sequence (Q9NY46 whole entry): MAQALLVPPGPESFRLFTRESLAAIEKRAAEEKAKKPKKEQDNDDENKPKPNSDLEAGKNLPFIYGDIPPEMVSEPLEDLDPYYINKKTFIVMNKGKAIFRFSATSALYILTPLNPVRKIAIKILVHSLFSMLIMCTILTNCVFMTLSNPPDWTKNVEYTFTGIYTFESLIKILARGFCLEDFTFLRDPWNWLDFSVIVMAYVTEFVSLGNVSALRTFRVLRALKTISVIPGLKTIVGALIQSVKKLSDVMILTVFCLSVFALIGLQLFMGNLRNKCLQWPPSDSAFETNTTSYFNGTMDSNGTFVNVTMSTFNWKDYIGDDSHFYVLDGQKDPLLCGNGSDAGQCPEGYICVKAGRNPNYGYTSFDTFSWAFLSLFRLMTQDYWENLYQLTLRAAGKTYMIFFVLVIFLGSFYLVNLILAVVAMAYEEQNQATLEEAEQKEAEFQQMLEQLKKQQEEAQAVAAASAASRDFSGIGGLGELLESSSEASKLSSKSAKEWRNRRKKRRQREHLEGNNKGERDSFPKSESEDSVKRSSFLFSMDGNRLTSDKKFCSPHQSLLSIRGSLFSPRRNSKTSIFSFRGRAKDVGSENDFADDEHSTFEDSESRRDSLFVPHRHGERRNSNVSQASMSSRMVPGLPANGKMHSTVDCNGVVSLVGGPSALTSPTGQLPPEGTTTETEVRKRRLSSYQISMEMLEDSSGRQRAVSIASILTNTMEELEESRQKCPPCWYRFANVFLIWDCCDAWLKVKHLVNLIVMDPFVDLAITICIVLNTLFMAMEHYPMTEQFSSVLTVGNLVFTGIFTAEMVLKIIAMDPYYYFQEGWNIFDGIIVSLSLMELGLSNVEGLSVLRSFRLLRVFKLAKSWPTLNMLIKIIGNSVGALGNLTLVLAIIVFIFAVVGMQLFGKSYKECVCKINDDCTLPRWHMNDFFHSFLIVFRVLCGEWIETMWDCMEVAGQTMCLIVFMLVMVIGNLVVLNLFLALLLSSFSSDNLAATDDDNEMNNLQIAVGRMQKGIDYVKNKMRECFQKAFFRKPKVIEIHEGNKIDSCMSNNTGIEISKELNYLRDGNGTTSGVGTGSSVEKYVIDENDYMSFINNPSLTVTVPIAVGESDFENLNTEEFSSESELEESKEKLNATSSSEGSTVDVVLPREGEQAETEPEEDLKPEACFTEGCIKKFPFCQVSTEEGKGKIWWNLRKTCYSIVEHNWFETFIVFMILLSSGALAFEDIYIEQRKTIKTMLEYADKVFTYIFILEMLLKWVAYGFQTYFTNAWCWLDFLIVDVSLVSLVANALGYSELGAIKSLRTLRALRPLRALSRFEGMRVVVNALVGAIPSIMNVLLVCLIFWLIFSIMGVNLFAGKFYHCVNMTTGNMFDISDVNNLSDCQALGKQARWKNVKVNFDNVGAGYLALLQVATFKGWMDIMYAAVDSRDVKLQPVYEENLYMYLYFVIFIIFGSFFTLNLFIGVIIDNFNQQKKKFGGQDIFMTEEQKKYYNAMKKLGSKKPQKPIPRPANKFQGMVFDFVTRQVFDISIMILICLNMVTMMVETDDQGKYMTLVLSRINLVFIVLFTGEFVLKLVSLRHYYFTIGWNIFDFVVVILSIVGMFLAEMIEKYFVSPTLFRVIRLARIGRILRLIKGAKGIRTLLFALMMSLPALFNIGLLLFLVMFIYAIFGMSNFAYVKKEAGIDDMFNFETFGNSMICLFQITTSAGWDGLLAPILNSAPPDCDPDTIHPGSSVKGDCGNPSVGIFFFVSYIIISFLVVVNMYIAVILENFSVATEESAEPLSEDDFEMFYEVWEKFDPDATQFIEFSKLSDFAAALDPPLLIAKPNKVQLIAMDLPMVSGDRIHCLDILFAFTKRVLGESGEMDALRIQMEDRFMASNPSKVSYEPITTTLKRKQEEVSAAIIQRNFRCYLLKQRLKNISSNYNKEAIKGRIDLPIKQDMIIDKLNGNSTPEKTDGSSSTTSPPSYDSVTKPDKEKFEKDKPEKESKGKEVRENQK

SMILES | IC50 [1] [nM] | IC50 [2] [nM]
CC(=O)Nc1cc(C(=O)NCc2cccc(C(F)(F)F)c2C)cc(C)n1 [Example 815, 2-acetamido-6-methyl-N-(2-methyl-3-(trifluoromethyl)benzyl)isonicotinamide] | < 1000 | < 1000
CCC(=O)Nc1cc(C(=O)NC(C)c2cnc(OCC(F)(F)F)c(C)c2)ccn1 (single isomer, unassigned) [Example 87, N-(1-(5-methyl-6-(2,2,2-trifluoroethoxy)pyridin-3-yl)ethyl)-2-propionamidoisonicotinamide] | < 1000 | < 1000
CC(C)C(=O)Nc1cc(C(=O)NCc2ccc(OCC(F)(F)F)nc2)ccn1 [Example 169, 2-isobutyramido-N-((6-(2,2,2-trifluoroethoxy)pyridin-3-yl)methyl)isonicotinamide] | < 1000 | < 1000
Cc1cc(C(=O)NCc2cccc(C(F)(F)F)c2)cc(NC(=O)C(C)C)n1 [Example 534, 2-isobutyramido-6-methyl-N-(3-(trifluoromethyl)benzyl)isonicotinamide] | < 1000 | < 1000
CCC(=O)Nc1cc(C(=O)NC(C)c2cnc(OCC(F)(F)C(F)F)c(C)c2)ccn1 (single isomer, unassigned) [Example 925, N-(1-(5-methyl-6-(2,2,3,3-tetrafluoropropoxy)pyridin-3-yl)ethyl)-2-propionamidoisonicotinamide] | < 1000 | < 1000
Cc1cc(CNC(=O)c2ccnc(NC(=O)C3CC3)n2)cnc1OCC(F)(F)F [Example 564, 2-(cyclopropanecarboxamido)-N-((5-methyl-6-(2,2,2-trifluoroethoxy)pyridin-3-yl)methyl)pyrimidine-4-carboxamide] | < 1000 | < 1000
CCC(=O)Nc1cc(C(=O)NCc2cccc(C(F)(F)F)c2)cc(C)n1 [Example 127, 2-methyl-6-propionamido-N-(3-(trifluoromethyl)benzyl)isonicotinamide] | < 1000 | < 1000
CCC(=O)Nc1cc(C(=O)NCc2ccc(OC(F)(F)F)c(C)c2)ccn1 [Example 805, N-(3-methyl-4-(trifluoromethoxy)benzyl)-2-propionamidoisonicotinamide] | < 1000 | < 1000
CCC(=O)Nc1cc(C(=O)NC(C)c2ccc(OCC(F)(F)F)c(Cl)c2)cc(C)n1 (single isomer, unassigned) [Example 677, N-(1-(3-chloro-4-(2,2,2-trifluoroethoxy)phenyl)ethyl)-2-methyl-6-propionamidoisonicotinamide] | < 1000 | < 1000
CC(=O)Nc1cc(C(=O)NCc2ccc(OCC(F)(F)F)c(C)c2)ccn1 [Example 788, 2-acetamido-N-(3-methyl-4-(2,2,2-trifluoroethoxy)benzyl)isonicotinamide] | < 1000 | < 1000
Cc1cc(C(C)NC(=O)c2ccnc(NC(=O)C3CC3)n2)cnc1OCC(F)(F)F (single isomer, unassigned) [Example 224, 2-(cyclopropanecarboxamido)-N-(1-(5-methyl-6-(2,2,2-trifluoroethoxy)pyridin-3-yl)ethyl)pyrimidine-4-carboxamide] | < 1000 | < 1000
CC(=O)Nc1nc(C)cc(C(=O)NCc2cnc(OCC(F)(F)F)c(C)c2)n1 [Example 363, 2-acetamido-6-methyl-N-((5-methyl-6-(2,2,2-trifluoroethoxy)pyridin-3-yl)methyl)pyrimidine-4-carboxamide] | < 1000 | < 1000
CCC(=O)Nc1cc(C(=O)NCc2ccc(OCC(F)(F)F)nc2OC)ccn1 [Example 149, N-((2-methoxy-6-(2,2,2-trifluoroethoxy)pyridin-3-yl)methyl)-2-propionamidoisonicotinamide] | < 1000 | < 1000
Cc1cc(C(=O)NCc2cnc(OCC(F)(F)C(F)F)c(C)c2)cc(NC(=O)C2CC2)n1 [Example 946, 2-(cyclopropanecarboxamido)-6-methyl-N-((5-methyl-6-(2,2,3,3-tetrafluoropropoxy)pyridin-3-yl)methyl)isonicotinamide] | < 1000 | < 1000
Cc1cc(C(=O)NCc2cccc(OC(F)(F)F)c2)cc(NC(=O)CC2CC2)n1 [Example 962, 2-(2-cyclopropylacetamido)-6-methyl-N-(3-(trifluoromethoxy)benzyl)isonicotinamide] | < 1000 | < 1000
Cc1cc(CNC(=O)c2ccnc(NC(=O)C3CC3)c2)cnc1OCC(F)(F)C(F)F [Example 942, 2-(cyclopropanecarboxamido)-N-((5-methyl-6-(2,2,3,3-tetrafluoropropoxy)pyridin-3-yl)methyl)isonicotinamide] | < 1000 | < 1000
Cc1cc(CNC(=O)c2ccnc(NC(=O)C3CC3)c2)cnc1OCC(F)(F)F [Example 369, 2-(cyclopropanecarboxamido)-N-((5-methyl-6-(2,2,2-trifluoroethoxy)pyridin-3-yl)methyl)isonicotinamide] | < 1000 | < 1000
Cc1cc(C(=O)NC(C)c2cnc(OCC(F)(F)F)c(Cl)c2)cc(NC(=O)C2CC2)n1 (single isomer, unassigned) [Example 832, N-(1-(5-chloro-6-(2,2,2-trifluoroethoxy)pyridin-3-yl)ethyl)-2-(cyclopropanecarboxamido)-6-methylisonicotinamide] | < 1000 | < 1000

More lines, now with the values ahead:

IC50 [1] [nM] | IC50 [2] [nM] | SMILES
< 1000 | < 1000 | Cc1cc(C(=O)NC(C)c2cnc(OCC(F)(F)F)c(C)c2)cc(NC(=O)C(C)C)n1 (single isomer, unassigned) [Example 520, 2-isobutyramido-6-methyl-N-(1-(5-methyl-6-(2,2,2-trifluoroethoxy)pyridin-3-yl)ethyl)isonicotinamide]
< 1000 | < 1000 | CCC(=O)Nc1cc(C(=O)NC(C)c2ccc(OCC(F)(F)F)cc2)cc(C)n1 (single isomer, unassigned) [Example 136, 2-methyl-6-propionamido-N-(1-(4-(2,2,2-trifluoroethoxy)phenyl)ethyl)isonicotinamide]
< 1000 | < 1000 | Cc1cc(C(C)NC(=O)c2ccnc(NC(=O)C3CC3)c2)cnc1OCC(F)(F)F (single isomer, unassigned) [Example 89, 2-(cyclopropanecarboxamido)-N-(1-(5-methyl-6-(2,2,2-trifluoroethoxy)pyridin-3-yl)ethyl)isonicotinamide]
< 1000 | < 1000 | CC(=O)Nc1cc(C(=O)NCc2ccc(OC(F)(F)F)c(C)c2)cc(C)n1 [Example 808, 2-acetamido-6-methyl-N-(3-methyl-4-(trifluoromethoxy)benzyl)isonicotinamide]
< 1000 | < 1000 | Cc1cc(C(=O)NCc2cnc(OCC(F)(F)F)c(C)c2)cc(NC(=O)CC2CC2)n1 [Example 954, 2-(2-cyclopropylacetamido)-6-methyl-N-((5-methyl-6-(2,2,2-trifluoroethoxy)pyridin-3-yl)methyl)isonicotinamide]
< 1000 | < 1000 | Cc1cc(C(=O)NC(C)c2cnc(OCC(F)(F)F)c(C)c2)nc(Nc2ncco2)n1 (single isomer, unassigned) [Example 456, 6-methyl-N-(1-(5-methyl-6-(2,2,2-trifluoroethoxy)pyridin-3-yl)ethyl)-2-(oxazol-2-ylamino)pyrimidine-4-carboxamide]
< 1000 | < 1000 | CC(=O)Nc1cc(C(=O)NCc2cnc(OCC(F)(F)C(F)F)c(C)c2)cc(C)n1 [Example 944, 2-acetamido-6-methyl-N-((5-methyl-6-(2,2,3,3-tetrafluoropropoxy)pyridin-3-yl)methyl)isonicotinamide]
< 1000 | < 1000 | CC(=O)Nc1cc(C(=O)NC(C)c2cnc(OCC(F)(F)C(F)F)c(C)c2)cc(C)n1 (single isomer, unassigned) [Example 927, 2-acetamido-6-methyl-N-(1-(5-methyl-6-(2,2,3,3-tetrafluoropropoxy)pyridin-3-yl)ethyl)isonicotinamide]
< 1000 | < 1000 | CC(=O)Nc1cc(C(=O)NCc2ccc(OCC(F)(F)F)c(C)c2)cc(C)n1 [Example 792, 2-acetamido-6-methyl-N-(3-methyl-4-(2,2,2-trifluoroethoxy)benzyl)isonicotinamide]
< 1000 | < 1000 | CCC(=O)Nc1cc(C(=O)NCc2cnc(OCC(F)(F)C(F)F)c(C)c2)ccn1 [Example 940, N-((5-methyl-6-(2,2,3,3-tetrafluoropropoxy)pyridin-3-yl)methyl)-2-propionamidoisonicotinamide]
< 1000 | < 1000 | CCC(=O)Nc1cc(C(=O)NC(C)c2cnc(OCC(F)(F)F)c(Cl)c2)ccn1 (single isomer, unassigned) [Example 69, N-(1-(5-chloro-6-(2,2,2-trifluoroethoxy)pyridin-3-yl)ethyl)-2-propionamidoisonicotinamide]
< 1000 | < 1000 | CCC(=O)Nc1nccc(C(=O)NCc2cnc(OCC(F)(F)F)c(Cl)c2)n1 [Example 410, N-((5-chloro-6-(2,2,2-trifluoroethoxy)pyridin-3-yl)methyl)-2-propionamidopyrimidine-4-carboxamide]
< 1000 | < 1000 | Cc1cc(CNC(=O)c2ccnc(NC(=O)C(C)C)c2)cnc1OCC(F)(F)C(F)F [Example 941, 2-isobutyramido-N-((5-methyl-6-(2,2,3,3-tetrafluoropropoxy)pyridin-3-yl)methyl)isonicotinamide]
